# Measured values published in patent US20230203043A1, “NOVEL IMIDAZOPYRAZINE DERIVATIVES” (Hoffmann-La Roche Inc., priority 2020, published 2023).
# Counter-ions that a name gives are not always drawn.
# Tested on: Acinetobacter baumannii ATCC17961
# Assay: Antimicrobial susceptibility testing: 90% growth inhibitory concentration (IC90) determination in Iso-Sensitest broth, OD600 growth
# Type: cell-based
# Conditions: Acinetobacter baumannii, ATCC17961, 16 h, read-out: A. baumannii ATCC 17961 IC90 (uM), strain ATCC 17961, OD600 growth over 16 h
# How it was run: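 Growth inhibition is calculated during the logarithmic phase from OD600 readings taken every 20 minutes across 16 h at 35±2° C. Bacteria at ~5×10^(5) CFU/ml face twofold dilution series (e.g. 50 to 0.097 μM final).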
row,Structure (SMILES),IC90
1,"Cc1cc(Nc2nccn3c(-c4cn(CC#N)nc4C(F)(F)F)cnc23)cc(F)c1C(=O)N[C@H](C)CNC(=O)[C@H](C)N [Example 722, N-((R)-1-((S)-2-aminopropanamido)propan-2-yl)-4-((3-(1-(cyanomethyl)-3-(trifluoromethyl)-1H-pyrazol-4-yl)imidazo[1,2-a]pyrazin-8-yl)amino)-2-fluoro-6-methylbenzamide formate]",0.458 µM
2,"N#CCn1cc(-c2cnc3c(Nc4ccc(C(=O)NCC(=O)N[C@@H]5CCNC5)c(Cl)c4)nccn23)c(C(F)(F)F)n1 [Example 723, 2-chloro-4-[[3-[1-(cyanomethyl)-3-(trifluoromethyl)pyrazol-4-yl]imidazo[1,2-a]pyrazin-8-yl]amino]-N-[2-oxo-2-[[(3R)-pyrrolidin-3-yl]amino]ethyl]benzamide formate]",0.459 µM
3,"Cc1cc(Nc2nccn3c(-c4cn(CC#N)nc4C(F)(F)F)cnc23)ccc1C(=O)N[C@H](C)C(=O)NC1CC(N)C1 (stereo partly drawn) [Example 725, N-[(1R)-2[(3-aminocyclobutyl)amino]-1-methyl-2-oxo-ethyl]-4-[[3-[1-(cyanomethyl)-3-(trifluoromethyl)pyrazol-4-yl]imidazo[1,2-a]pyrazin-8-yl]amino]-2-methyl-benzamide formate]",0.462 µM
4,"Cc1cc(Nc2nccn3c(-c4cn(CC#N)nc4C(F)(F)F)cnc23)ccc1C(=O)N[C@H](C)C(=O)N1CCNCC1 [Example 726, 4-[[3-[1-(cyanomethyl)-3-(trifluoromethyl)pyrazol-4-yl]imidazo[1,2-a]pyrazin-8-yl]amino]-2-methyl-N-[(1R)-1-methyl-2-oxo-2-piperazin-1-yl-ethyl]benzamide formate]",0.463 µM
5,"N#CCn1cc(-c2cnc3c(Nc4ccc(C(=O)NCC(=O)N[C@H]5CCNC5)c(Cl)c4)nccn23)c(C(F)(F)F)n1 [Example 731, 2-chloro-4-[[3-[1-(cyanomethyl)-3-(trifluoromethyl)pyrazol-4-yl]imidazo[1,2-a]pyrazin-8-yl]amino]-N-[2-oxo-2-[[(3S)-pyrrolidin-3-yl]amino]ethyl]benzamide formate]",0.476 µM
6,"CCc1cc(Nc2nccn3c(-c4cn(CC#N)nc4C(F)(F)F)cnc23)ccc1C(=O)N[C@H](C)C(=O)N1CC[C@@H](N)C1 [Example 732, N-[(1R)-2-[(3R)-3-aminopyrrolidin-1-yl]-1-methyl-2-oxo-ethyl]-4-[[3-[1-(cyanomethyl)-3-(trifluoromethyl)pyrazol-4-yl]imidazo[1,2-a]pyrazin-8-yl]amino]-2-ethyl-benzamide formate]",0.48 µM
7,"CCc1cc(Nc2nccn3c(-c4cn(CC#N)nc4C(F)(F)F)cnc23)ccc1C(=O)N[C@H](C)C(=O)N1CC[C@H](N)C1 [Example 736, N-[(1R)-2-[(3S)-3-aminopyrrolidin-1-yl]-1-methyl-2-oxo-ethyl]-4-[[3-[1-(cyanomethyl)-3-(trifluoromethyl)pyrazol-4-yl]imidazo[1,2-a]pyrazin-8-yl]amino]-2-ethyl-benzamide formate]",0.49 µM
8,"CCc1cc(Nc2nccn3c(-c4cn(CCF)nc4C(F)(F)F)cnc23)ccc1C(=O)NCCOCCN1CCOCC1 [Example 737, 2-ethyl-4-((3-(1-(2-fluoroethyl)-3-(trifluoromethyl)-1H-pyrazol-4-yl)imidazo[1,2-a]pyrazin-8-yl)amino)-N-(2-(2-morpholinoethoxy)ethyl)benzamide formate]",0.495 µM
9,"Cc1cc(Nc2nccn3c(-c4cn(CC#N)nc4C(F)(F)F)cnc23)ccc1C(=O)N[C@H](C)C(=O)N[C@H]1CCNC1 [Example 738, 4-[[3-[1-(cyanomethyl)-3-(trifluoromethyl)pyrazol-4-yl]imidazo[1,2-a]pyrazin-8-yl]amino]-2-methyl-N-[(1R)-1-methyl-2-oxo-2-[[(3S)-pyrrolidin-3-yl]amino]ethyl]benzamide formate]",0.526 µM
10,"Cc1cc(Nc2nccn3c(-c4cn(CC#N)nc4C(F)(F)F)cnc23)ccc1C(=O)NCC(=O)N1CC[C@H](N)C1 [Example 739, N-[2-[(3S)-3-aminopyrrolidin-1-yl]-2-oxo-ethyl]-4-[[3-[1-(cyanomethyl)-3-(trifluoromethyl)pyrazol-4-yl]imidazo[1,2-a]pyrazin-8-yl]amino]-2-methyl-benzamide formate]",0.527 µM

# Same assay, conditions: Acinetobacter baumannii, ATCC17961, 16 h, strain ATCC 17961, OD600 growth over 16 h, read-out: A. baumannii ATCC 17961 IC90
row,Structure (SMILES),IC90
1,"CCc1cc(Nc2nccn3c(-c4c[nH]nc4C(F)(F)F)cnc23)ccc1C(=O)NCCNC(=O)[C@H]1CC[C@@H](N)C1 [Example 724, N-(2-((1S,3R)-3-aminocyclopentane-1-carboxamido)ethyl)-2-ethyl-4-((3-(3-(trifluoromethyl)-1H-pyrazol-4-yl)imidazo[1,2-a]pyrazin-8-yl)amino)benzamide]",0.459 µM
2,"CCc1cc(Nc2nccn3c(-c4cn(CC(F)F)nc4C(F)(F)F)cnc23)ccc1C(=O)NCCCNC(=O)[C@@H]1C[C@@H](O)CN1 [Example 727, (2S,4R)-N-(3-(4-((3-(1-(2,2-difluoroethyl)-3-(trifluoromethyl)-1H-pyrazol-4-yl)imidazo[1,2-a]pyrazin-8-yl)amino)-2-ethylbenzamido)propyl)-4-hydroxypyrrolidine-2-carboxamide]",0.465 µM
3,"CCc1cc(Nc2nccn3c(-c4cn(CC(F)F)nc4C(F)(F)F)cnc23)ccc1C(=O)NCC(=O)NCCN [Example 729, N-[2-(2-aminoethylamino)-2-oxo-ethyl]-4-[[3-[1-(2,2-difluoroethyl)-3-(trifluoromethyl)pyrazol-4-yl]imidazo[1,2-a]pyrazin-8-yl]amino]-2-ethyl-benzamide]",0.473 µM
4,"C#CCn1cc(-c2cnc3c(Nc4ccc(C(=O)N5CCN(C(=O)C6CCNCC6)CC5)c(CC)c4)nccn23)c(C(F)F)n1 [Example 730, (4-(4-((3-(3-(difluoromethyl)-1-(prop-2-yn-1-yl)-1H-pyrazol-4-yl)imidazo[1,2-a]pyrazin-8-yl)amino)-2-ethylbenzoyl)piperazin-1-yl)(piperidin-4-yl) methanone]",0.475 µM
5,"CCc1cc(Nc2nccn3c(-c4cn(CC(F)F)nc4C(F)(F)F)cnc23)ccc1C(=O)NCC(=O)N1CC(N)C1 [Example 733, N-[2-(3-aminoazetidin-1-yl)-2-oxo-ethyl]-4-[[3-[1-(2,2-difluoroethyl)-3-(trifluoromethyl)pyrazol-4-yl]imidazo[1,2-a]pyrazin-8-yl]amino]-2-ethyl-benzamide]",0.481 µM
6,"C#CCn1cc(-c2cnc3c(Nc4ccc(C(=O)N5CCN(C(=O)[C@H]6C[C@H](N)C6)CC5)c(CC)c4)nccn23)c(C(F)F)n1 [Example 734, (4-((1r,3r)-3-aminocyclobutane-1-earbonyl)piperazin-1-yl)(4-((3-(3-(difluoromethyl)-1-(prop-2-yn-1-yl)-1H-pyrazol-4-yl)imidazo[1,2-a]pyrazin-8-yl)amino)-2-ethylphenyl)methanone]",0.489 µM
7,"Cc1cc(Nc2nccn3c(-c4cn(CCF)nc4C(F)(F)F)cnc23)cc(F)c1C(=O)N[C@H](C)CN [Example 735, (R)-N-(1-aminopropan-2-yl)-2-fluoro-4-((3-(1-(2-fluoroethyl)-3-(trifluoromethyl)-1H-pyrazol-4-yl)imidazo[1,2-a]pyrazin-8-yl)amino)-6-methylbenzamide]",0.49 µM
8,"CCc1cc(Nc2nccn3c(-c4c[nH]nc4C(F)(F)F)cnc23)ccc1C(=O)NCCNC(=O)[C@H]1C[C@@H](N)C1 [Example 740, N-(2-((1s,3s)-3-aminocyclobutane-1-carboxamido)ethyl)-2-ethyl-4-((3-(3-(trifluoromethyl)-1H-pyrazol-4-yl)imidazo[1,2-a]pyrazin-8-yl)amino)benzamide]",0.529 µM
